This is an account of results in ChEMBL document CHEMBL1131016, “Carbocyclic analogues of the potent cytidine deaminase inhibitor 1-(beta-D-ribofuranosyl)-1,2-dihydropyrimidin-2-one (zebularine)” (J Med Chem, 1998).

The target of experiment [1] is T1, Cytidine deaminase (Homo sapiens, UniProt P32320). As to the kind of experiment: Compound was tested for its binding affinity against human cytidine deaminase;16-fold less potent than that of zebularine (16.5 uM).
Experiment [2] deals with T1, Cytidine deaminase. Nature of the experiment: Inhibitory concentration of mouse or human Cytidine deaminase; No inhibition.

Active and inactive are the calls of the source. The calls are words filed in the database; no cut-off is given here.

T1 sequence (P32320 whole entry): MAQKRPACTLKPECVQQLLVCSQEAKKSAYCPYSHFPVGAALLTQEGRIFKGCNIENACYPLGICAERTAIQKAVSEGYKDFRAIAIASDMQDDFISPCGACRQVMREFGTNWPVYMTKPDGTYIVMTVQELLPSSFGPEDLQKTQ

`O=c1ncccn1C1CC(CO)[C@@H](O)[C@H]1O` (some centres not stated) yielded a fold less potent than zebularine in experiment [1] of 16. Regarding `O=c1ncccn1[C@H]1[C@H](O)[C@H](O)C2(CO)C[C@H]12` (single isomer, unassigned), in experiment [2], the inhibition entry was “inactive”.
